Assay [1] relates to sexual behaviour of male rats. The assay can be described thus: Sexual behaviour of castrated male rats, topical application of several materials (Table III). It is filed as in vivo, rat. Further details: key to Ejaculations (E): E = Ejaculations. To be noted: for Ejaculations (E) / No. Ob. / Int. Latency: individual rats; for No. Ob. / Int. Latency: castrated 14 days earlier, testosterone 4 μg/100 g BW daily; for Int. Latency: in s. From the text: (§1) The animal model -- All tested rats (Wistar derived from the departmental colony, Hormone Research Department, at the Weizmann Institute of Science), are sexually experienced male rats around 3 months of age (body weight ~250 g). At this age, the rats are castrated by removal of the testes and injected daily with testosterone for at least 14 consecutive days.
All rats (males and females) that take part in the experiment are kept in a 12-hour light 12-hour dark cycle. Prior to testing, each male is put in a separate cage for at least 1 hour. A sexually receptive female is introduced to each male. Females were tested for their receptivity by vaginal smearings. The latencies of mounts and intromissions are recorded.
6 rats, 120 days old, sexually experienced, were tested. The rats were castrated 14 days earlier and were injected with 4 μg/100 g BW of testosterone daily. […] All 6 materials were tested by topical application.

The subject of assay [2] is sexual behaviour of male rats. In words: Sexual behaviour of male rats after topical application of ointment (Table IV). The following applies: ointment applied onto the rat's penis. It is filed as in vivo.
Source text: as §1
(§2) All rats (males and females) that take part in the experiment are kept in a 12-hour light 12-hour dark cycle. Prior to testing, each male is put in a separate cage for at least 1 hour. A sexually receptive female is introduced to each male. Females were tested for their receptivity by vaginal smearings. The latencies of mounts and intromissions are recorded. […] Using castrated animals we achieved decreased sexual activity which is expressed by longer intervals between intromissions and less intromissions during the 15 min observation periods.
Preparation of Ointment -- Lanolin (1 g), water (3 g) DMSO (7 drops) and 10 mg of stearyl-VIP were manually homogenized in a mortar. An amount of paste, containing 30-50 μg peptide was applied onto the rat's penis and sexual behaviour, following the methodology previously described, was monitored.
(B) Using the same protocol as in (A) an ointment of VIP-oleyl was prepared and tested.

Another assay has as its system penile erection. To be noted: injection; cited from earlier work.
Assay [3] deals with sexual behaviour of male rats. The assay can be described thus: Sexual behaviour of castrated male rats after topical application in DMSO (Table II). It is filed as in vivo, rat. Further details: key to Ejaculations (E): E = Ejaculations. To be noted: for Effect on sexual activity (words): compared with DMSO control.
Source text: as §1, §2
As we have obtained positive results with stearyl-VIP by injection we have now developed a topical application method. This was achieved by mixing 20 μl of 1 μg/ml VIP-stearyl with 10 μl dimethyl sulfoxide (DMSO) and direct topical application on the sex organ.
Rats were castrated and injected daily for 16 consecutive days with testosterone at 2 μg/100 g BW. Testing was performed by topical application of stearyl-VIP-20 μg/20 μl mixed with 10 μl DMSO and compared to topical application of 30 μl DMSO.

Assay [4] relates to sexual behaviour of male rats. In words: Sexual behaviour of castrated, testosterone-treated male rats after intravenous injection (Table I). It is filed as in vivo, rat. Further details: key to Ejaculations (E): E = Ejaculations.
Source text: as §1, §2
Initially, we tested a few VIP analogs by injection (intravenously 5-10 μg/animal). As a control we injected saline at identical volumes (5-10 μl).
Rats were castrated and injected daily for 15 consecutive days with testosterone at 4 μg/100 g body weight (BW). Tests were performed with stearyl-VIP or VIP at 10 μg/animal.

The mark [5] stands for this setting: individual castrated rats, testosterone 4 μg/100 g BW daily 15 days, injection 10 μg/animal, listed as VIP stearyl.

Data on four compounds can be found in patent US5147855A, “Conjugates of VIP and active fragments thereof with hydrophobic moieties and topical compositions for male impotence” (Yeda Research and Development Co. Ltd., priority 1988, dated 1992).

Values joined by “and” are separate entries in the source; they are usually repeats but may differ in a detail not shown here. Identical values can stand only once. No end group written: not given here. NH = not defined here; oleyl = oleyl moiety

In the case of `CCCCCCCCCCCCCCCCCC(=O)O` [Stearic acid, reference compound], in assay [1], the “Ejaculations (E)” value was “E”; the “No. Ob.” value is 19 and 21; the “Int. Latency” value is 26 ± 1 and 18 ± 3 and 36 ± 2.
With “VIP-oleyl: VIP coupled to an oleyl moiety, tested as an ointment (HSDAVFTDNYTRLRKQMAVKKYLNSILN-{NH-oleyl}; ends and bridges not checked; UniProt P01282 125-152, looked up)”, in assay [2], the “Decrease (shortening) in intromission latency” value is ~ 10% and the Increase in ejaculations entry was “increased, though much less than stearyl-VIP”.
`CC(COc1ccccc1)N(CCCl)Cc1ccccc1` (stereo not drawn) [phenoxybenzamine]: the Erection result in the assay with penile erection is “Erection was also obtained”.
Regarding Stearyl-VIP, in assay [1], the “Activity upon topical application” value is on record as “the most active analog”; the “Ejaculations (E)” value is “E”; the “No. Ob.” value was 6 and 28 and 20 and 49 and 31; the “Int. Latency” value was 66 ± 15 and 18 ± 3 and 18 ± 2 and 12 ± 3 and 26 ± 1. In assay [1] (6 rats), the Change in latency entry is on record as “shortening of latency”, the “Change in number of ejaculations” value was “clear increase in the number of ejaculations” and the “Change in number of intromissions” value was “increase in number of intromissions”. Further, the “Obs. (number of intromissions)” value in assay [3] (individual castrated rats, testosterone 2 μg/100 g BW daily 16 days, topical 20 μg/20 μl mixed with 10 μl DMSO) was 21 and 14 and 10 and 3 and 11 and 25. Moreover, the Intromission latency in assay [3] (individual castrated rats, testosterone 2 μg/100 g BW daily 16 days, topical 20 μg/20 μl mixed with 10 μl DMSO, in s) was 23 ± 4 and 29 ± 4 and 32 ± 8 and 16 ± 3 and 38 ± 10 and 18 ± 7 and 24 ± 4. Besides, the “Ejaculations (E)” value in assay [3] (individual castrated rats, topical in DMSO) is “E”. The “Effect on sexual activity (words)” value in assay [3] (topical in DMSO) is “remarkable sexual arousal”. Moreover, the “Effect on sexual activity (words)” value in assay [3] (topical in DMSO, listed as StearylVIP) is “rats B2 and A3 were sexually active only after”. In assay [4] (setting [5]), the Intromission latency is 17 ± 3 s and 28 ± 7 s and 50 ± 17 s and 33 ± 6 s and 37 ± 6 s and 56 ± 8 s and 45 ± 7 s; the “Obs. = Number of intromissons per 15 minute test period” value was 7 and 4 and 12 and 20 and 14 and 6. Further, the “Ejaculations (E)” value in assay [4] (individual castrated rats, injection 10 μg/animal) is recorded as “E”. For the same compound, the “Effect on sexual activity (words)” value in assay [4] (injection) is “potentiates sexual activity in a comparable manner to VIP”. For the same compound, in assay [2], the “Decrease (shortening) in intromission latency” value is “about 25%” and the Increase in ejaculations entry is reported as “two-fold”.
